# From patent US10822338B2, “Substituted aminoquinazoline compounds as A2A antagonist” (Merck Sharp & Dohme Corp., priority 2015, dated 2020)
# Target: human A2A receptor (Homo sapiens (Human), UniProt P29274)
# Assay: A2A competition binding assay using Scintillation Proximity technology
# Conditions: 0.5 nM tritiated radioligand, Cheng-Prusoff
# Description: Binding affinities of compounds of the invention for the human A2A receptor were determined in a competition binding assay using Scintillation Proximity technology. Thus, 1^μg (^ denotes 1 μg of membrane/well), or preferably 0.25 μg of membranes from HEK293 cells expressing the human A2a receptor were incubated with a compound of the invention at concentrations ranging from 3000 nM to 0.15 nM in a reaction mixture containing also 0.5 nM of a tritiated form of 5-amino-7-[2-phenethyl]-2-(furan-2-yl)-7H-pyrazolo[4,3-e][1,2,4]triazolo[1,5-c]pyrimidine (the tritiated compound) and 25 μg of wheat germ agglutin-coated yttrium silicate SPA beads for one hour at room temperature with agitation. The beads were then allowed to settle to the bottom of the wells for 1 hr, after which the membrane-associated radioactivity was determined by scintillation counting in a TopCount microplate reader. Ki values were determined using the Cheng-Prusoff equation.
# HEK293 cells expressing the human, rat, dog or monkey adenosine 2a receptor (Purchased from Perkin-Elmer # RBHA2AM400UA).
# The Tritiated compound was prepared in-house by MRL Radiochemistry according to published methods.
# Wheat germ agglutinin-coated yttrium silicate SPA beads (GE Healthcare #RPNQ0023). Dilute to 25 mg/mL in assay buffer.
# Assay Buffer was prepared in house: Dulbecco's calcium and magnesium free phosphate buffered saline+10 mM MgCl2
# Adenosine deaminase from calf intestine, 10 mg/2 mL (Roche #10 102 105 001).
# A2A antagonist standard (9-chloro-1-(2-furanyl)-[1,2,4]triazolo[1,5-c]quinazolin-5-amine from Tocris Bioscience)
# Make eight 1:3 serial dilutions in 100% DMSO from a 3 mM compound stock
# Transfer 50 nL of compound into a 384-well OptiPlate (Perkin Elmer).
# Typically, final concentrations of compound used in the assay ranged from 3000 nM to 0.152 nM.
# Dilute a solution of the Tritiated compound to 1.25 nM in assay buffer. This a 2.5× solution. The final concentration in the assay is 0.5 nM. Calculate the concentration by counting two 5 μL aliquots.
# Use *1 ug or preferrably 0.25 ug of membrane/well. Dilute membranes to 9.7 μg/ml in assay buffer. Treat with 20 ug/ml adenosine deaminase (ADA) for 15 minutes at room temperature to degrade endogenous adenosine.
# Use 25 μg/well wheat germ agglutinin-coated yttrium silicate SPA beads.
# Mix ADA-treated membranes and SPA beads together for 30 min prior to assay.
# To the Perkin-Elmer Optiplate-384 containing the compound titration add 20 μL of 2.5× solution of the Tritiated compound and 30 μL of the membrane-bead mixture. Incubate for one hour at room temperature with agitation.
# Include total binding (assay buffer+1% DMSO) and non-specific binding (CGS15943, 1 μM) wells.
# Allow the beads to settle for one hour.
# A curve fitting program (i.e., Prism, Activity Base, Chemcart) is used to determine the EC50. The Ki value is calculated using the Cheng-Prusoff equation. Ki=EC50/(1+(radioligand concentration/Kd)) Counting and Calculations
# Counting and calculations were performed as described within the “A2A Activity Binding of Compounds of the Invention” section. Using the foregoing methods, the following results were obtained using compounds of the invention described herein. Each example compound tested is reported in the following format: Example number: A2A Ki (nM) selectivity.
# [1] = values marked ^: 1 μg of membrane/well (HEK293 cells expressing the human A2a receptor)
# [2] = 0.25 μg of membranes from HEK293 cells expressing the human A2a receptor per well
# Chain of human A2A receptor (P29274 whole entry): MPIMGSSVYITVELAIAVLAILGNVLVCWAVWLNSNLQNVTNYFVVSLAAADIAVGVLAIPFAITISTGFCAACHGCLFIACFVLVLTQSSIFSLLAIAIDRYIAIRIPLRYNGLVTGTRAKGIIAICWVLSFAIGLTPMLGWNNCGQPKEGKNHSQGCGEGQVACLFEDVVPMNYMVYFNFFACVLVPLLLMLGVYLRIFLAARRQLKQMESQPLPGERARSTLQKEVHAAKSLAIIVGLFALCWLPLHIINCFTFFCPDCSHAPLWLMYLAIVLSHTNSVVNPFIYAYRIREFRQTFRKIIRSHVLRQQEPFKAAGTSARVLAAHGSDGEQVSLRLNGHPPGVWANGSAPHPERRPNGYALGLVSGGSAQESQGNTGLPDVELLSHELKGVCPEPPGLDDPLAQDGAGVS
Ki [1] [nM],Ki [2] [nM],Structure (SMILES)
2.7,,"COc1cccc2c1nc(N)n1nc([C@@H]3CCCN(C(=O)c4cccs4)C3)nc21 [Example 39, 7-methoxy-2-((3R)-1-(thiophen-2-ylcarbonyl)piperidin-3-yl)[1,2,4]triazolo[1,5-c]quinazolin-5-amine]"
,1.1,"COc1cccc2c1nc(N)n1nc([C@@H]3CCCN(C(=O)C(C)(C)F)C3)nc21 [Example 42, (R)-1-(3-(5-amino-7-methoxy-[1,2,4]triazolo[1,5-c]quinazolin-2-yl)piperidin-1-yl)-2-fluoro-2-methylpropan-1-one]"
,0.6,"COc1cccc2c1nc(N)n1nc([C@@H]3CCCN(CC(C)(C)F)C3)nc21 [Example 43, (R)-2-(1-(2-fluoro-2-methylpropyl)piperidin-3-yl)-7-methoxy-[1,2,4]triazolo[1,5-c]triazolo[1,5-c]quinazolin-5-amine]"
,5,"COc1cccc2c1nc(N)n1nc([C@@H]3CCCN(CC4CCOCC4)C3)nc21 [Example 44, (R)-7-methoxy-2-(1-((tetrahydro-2H-pyran-4-yl)methyl)piperidin-3-yl)-[1,2,4]triazolo[1,5-c]quinazolin-5-amine]"
3.8,,"COc1cccc2c1nc(N)n1nc([C@@H]3CCCN(Cc4cccnc4)C3)nc21 [Example 45, 7-methoxy-2-((3R)-1-(pyridin-3-ylmethyl)piperidin-3-yl)[1,2,4]triazolo[1,5-c]quinazolin-5-amine]"
,2,"COc1cccc2c1nc(N)n1nc([C@@H]3CCCN(Cc4cc(F)cc(C(F)(F)F)c4)C3)nc21 [Example 46, 2-((3R)-1-[3-fluoro-5-(trifluoromethyl)benzyl)piperidin-3-yl)-7-methoxy[1,2,4]triazolo [1,5-c]quinazolin-5-amine]"
,9.7,"COc1cccc2c1nc(N)n1nc([C@@H]3CCCN(CC4CCCC4)C3)nc21 [Example 47, 2-((3R)-1-(cyclopentylmethyl)piperidin-3-yl)-7-methoxy[1,2,4]triazolo [1,5-c]quinazolin-5-amine]"
2.1,,"COc1cccc2c1nc(N)n1nc([C@@H]3CCCN(Cc4cnc(C)s4)C3)nc21 [Example 48, 7-methoxy-2-((3R)-1-((2-methyl-1,3-thiazol-5-yl)methyl)piperidin-3-yl)[1,2,4]triazolo[1,5-c]quinazolin-5-amine]"
,1.2,"COc1cccc2c1nc(N)n1nc([C@@H]3CCCN(C4CC4)C3)nc21 [Example 52, (R)-2-(1-cyclopropylpiperidin-3-yl)-7-methoxy-[1,2,4]triazolo[1,5-c]quinazolin-5-amine]"
,2,"COc1cccc2c1nc(N)n1nc([C@@H]3CCN(CC(F)(F)F)C3)nc21 [Example 53, (R)-7-methoxy-2-(1-(2,2,2-trifluoroethyl)pyrrolidin-3-yl)-[1,2,4]triazolo[1,5-c]quinazolin-5-amine]"

# Second part, the molecule before the results:
Structure (SMILES),Ki [1] [nM],Ki [2] [nM]
"COc1cccc2c1nc(N)n1nc([C@@H]3CCCN(C(=O)c4ccccc4)C3)nc21 [Example 37, (R)-(3-(5-amino-7-methoxy-[1,2,4]triazolo[1,5-c]quinazolin-2-yl)piperidin-1-yl)(phenyl)methanone]",1.3,
"COc1cccc2c1nc(N)n1nc([C@@H]3CCCN(C(=O)C(C)(C)C)C3)nc21 [Example 38, 2-((3R)-1-(2,2-dimethylpropanoyl)piperidin-3-yl)-7-methoxy[1,2,4]triazolo [1,5-c]quinazolin-5-amine]",4.4,
"COc1cccc2c1nc(N)n1nc([C@@H]3CCCN(C(=O)c4ocnc4C)C3)nc21 [Example 40, 7-methoxy-2-((3R)-1-((4-methyl-1,3-oxazol-5-yl)carbonyl)piperidin-3-yl)[1,2,4]triazolo[1,5-c]quinazolin-5-amine]",1.5,
"COc1cccc(C(=O)N2CCC[C@@H](c3nc4c5cccc(OC)c5nc(N)n4n3)C2)c1 [Example 41, 7-methoxy-2-((3R)-1-((3-methoxyphenyl)carbonyl)piperidin-3-yl)[1,2,4]triazolo[1,5-c]quinazolin-5-amine]",1.9,
"COc1cccc2c1nc(N)n1nc([C@@H]3CCCN(C4CCC(F)(F)CC4)C3)nc21 [Example 49, 2-((3R)-1-(4,4-difluorocyclohexyl)piperidin-3-yl)-7-methoxy[1,2,4]triazolo [1,5-c]quinazolin-5-amine]",,5.9
"COc1cccc2c1nc(N)n1nc([C@H]3CN(C4CCC(F)(F)CC4)CCO3)nc21 [Example 54, (R)-2-(4-(4,4-difluorocyclohexyl)morpholin-2-yl)-7-methoxy-[1,2,4]triazolo[15-c]quinazolin-5-amine]",,3
"COc1cccc2c1nc(N)n1nc([C@@H]3CC(F)(F)CN3)nc21 [Example 57, (S)-2-(4,4-difluoropyrrolidin-2-yl)-7-methoxy-[1,2,4]triazolo[1,5-c]quinazolin-5-amine]",,0.5
